The nature of the series: pH dependent solubility of retigabine. To be noted: around pH 2 (stomach) versus around pH 7 (lower intestine).

Structures are written as SMILES.

For `CCOC(=O)Nc1ccc(NCc2ccc(F)cc2)cc1N` [Retigabine], the pH dependent solubility entry was “more soluble in the acidic conditions of the stomach (around pH 2) than in the near neutral conditions of the lower intestine (around pH 7)”.

(Values after US20120288544A1, “NOVEL RETIGABINE COMPOSITION” (GLAXO GROUP LIMITED, priority 2010, published 2012).)
